Earlier results on three substances are cited in patent US10918126B2, “Isotopically modified compounds and their use as food supplements” (Retrotope, Inc., priority 2006, dated 2021).

For series [1], the target named is liver alcohol dehydrogenase (ADH). Conditions: ethanol oxidation by ADH to acetaldehyde.

Where two headings read alike, the source gives them in different places.

In the case of (1-R)[1-^2H2]— ethanol, the “kinetic isotope effect D(V/K)” value in series [1] (pH 6) was 3; in series [1] (pH 9) it was 1.5. Take (1-R)[I—^3H2]— ethanol: the “kinetic isotope effect T(V/K)” value is 6.5 in series [1] (pH 6) and 2.5 in series [1] (pH 9). Turning to deuterated ethanol, the “mean value of D(V/K)” value with perfused rat liver is given as 2.89.
